Tested on: PCSK9
Assay: PCSK9 secretion assay in HepG2 cells (PCSK9 ELISA)
Assay type: cell-based
Details: HepG2 cells; for IC50: 16 hours incubation, at least 6 concentrations
Description: HepG2 cells (from ATCC, Catalog no. HB-8065) were maintained in DMEM (Invitrogen) supplemented with 10% fetal bovine serum (Invitrogen). The day prior to the PCSK9 assay, cells are seeded in 96-well collagen coated plates at 25,000 cells/well.
The compounds of the invention were stored at −20° C. until used. The test article compound was dissolved in 100% ethanol to a 50 mM stock solution. This was then diluted in FBS to a final concentration of 1 mM. This solution was placed in a sonicating water bath for 30 minutes. Subsequent dilutions were then made in FBS supplemented with an equivalent volume of ethanol and mixed by vortexing.
HepG2 cells were seeded onto a collagen coated 96-well plate (Becton Dickinson, Catalog no. 35-4407) the day prior to the assay, as described above. The next day, the cell medium was removed, washed once with 100 μL serum free DMEM to remove any residual PCSK9, and replaced with 90 μL of serum free DMEM. Ten microliters of each compound concentration prepared in FBS was then added. Each concentration of compound was tested in triplicate. The compound was incubated with the cells overnight for 16 hours. Following this incubation, 10 μL of AlamarBlue was added to each well and cells incubated for another 2 hours. The plates were then removed and AlamarBlue fluorescence was measured (excitation, 550 nm and […]) to assess cell viability. Cell culture supernatant was then diluted […] 1×RDSP Calibrator Diluent and PCSK9 ELISA was then performed with 50 μL of this diluted sample, as per the manufacturer's instructions. The ELISA was measured on a Victor X5 multilabel plate reader (PerkinElmer) at an absorbance of 450 nm with background correction measured at 550 nm (The PCSK9 Elisa kits can be purchased from R&D System, Catalog no. DPC900).
Alternatively, an IC50 could also be obtained when this type of assay was carried out using at least 6 different concentrations of the test compounds. Table 1 lists the IC50 values for the compounds tested in this assay.

| Structure (SMILES) | activity toward PCSK9 (highest tested concentration of 50 μM, FIG. 1) | IC50 [µM] |
| --- | --- | --- |
| CC/C=C\C/C=C\C/C=C\C/C=C\C/C=C\CCCC(=O)NCCNC(C)=O [Compound A, (5Z,8Z,11Z,14Z,17Z)—N-(2-acetamidoethyl)icosa-5,8,11,14,17-pentaenamide, reference compound] | essentially no activity | – |
| CC/C=C\C/C=C\C/C=C\C/C=C\C/C=C\C/C=C\CCC(=O)NCCN(C)CCNC(=O)c1cccnc1 [Compound I-2] | – | < 25 |
| CC/C=C\C/C=C\C/C=C\C/C=C\C/C=C\C/C=C\CCC(=O)NCCNC(=O)c1cccnc1 [Compound I-7, N-(2-(4Z,7Z,10Z,13Z,16Z,19Z)-docosa-4,7,10,13,16,19-hexaenamidoethyl)nicotinamide] | – | < 25 |
| CC/C=C\C/C=C\C/C=C\C/C=C\C/C=C\CCCC(=O)N1CCN(C(=O)c2cccnc2)CC1 [Compound I-13, (5Z,8Z,11Z,14Z,17Z)-1-(4-nicotinoylpiperazin-1-yl)icosa-5,8,11,14,17-pentaen-1-one] | – | 25 to 50 |
| CC/C=C\C/C=C\C/C=C\C/C=C\C/C=C\C/C=C\CCC(=O)N(C)CCNC(=O)c1cccnc1 [Compound I-14, N-(2-((4Z,7Z,10Z,13Z,16Z,19Z)—N-methyldocosa-4,7,10,13,16,19-hexaenamido)ethyl)nicotinamide] | – | < 25 |
| CC/C=C\C/C=C\C/C=C\C/C=C\C/C=C\CCCC(=O)NCCCCNC(=O)c1cccnc1 [Compound I-19, N-(4-((5Z,8Z,11Z,14Z,17Z)-icosa-5,8,11,14,17-pentaenamido)butyl)nicotinamide] | – | < 25 |
| CC/C=C\C/C=C\C/C=C\C/C=C\C/C=C\CCCC(=O)NCC(C)(C)NC(=O)c1cccnc1 [Compound I-21, N-(1-((5Z,8Z,11Z,14Z,17Z)-icosa-5,8,11,14,17-pentaenamido)-2-methylpropan-2-yl)nicotinamide] | – | < 25 |
| CC/C=C\C/C=C\C/C=C\C/C=C\C/C=C\CCCC(=O)N1CCC(NC(=O)c2cccnc2)CC1 [Compound I-22, N-(1-((5Z,8Z,11Z,14Z,17Z)-icosa-5,8,11,14,17-pentaenoyl)piperidin-4-yl)nicotinamide] | – | < 25 |
| CC/C=C\C/C=C\C/C=C\C/C=C\C/C=C\CCCC(=O)N[C@H]1CCN(C(=O)c2cccnc2)C1 [Compound I-23, (5Z,8Z,11Z,14Z,17Z)—N—((S)-1-nicotinoylpyrrolidin-3-yl)icosa-5,8,11,14,17-pentaenamide] | – | < 25 |
| CC/C=C\C/C=C\C/C=C\C/C=C\C/C=C\CCCC(=O)NCCNC(=O)[C@@H](NC(=O)c1cccnc1)C(C)C [Compound I-25, N—((S)-1-((2-((5Z,8Z,11Z,14Z,17Z)-icosa-5,8,11,14,17-pentaenamido)ethyl)amino)-3-methyl-1-oxobutan-2-yl)nicotinamide] | – | 25 to 50 |
| CC/C=C\C/C=C\C/C=C\C/C=C\C/C=C\CCCC(=O)NCCNC(=O)CCNC(=O)c1cccnc1 [Compound I-26, N-(3-((2-((5Z,8Z,11Z,14Z,17Z)-icosa-5,8,11,14,17-pentaenamido)ethyl)amino)-3-oxopropyl)nicotinamide] | – | 25 to 50 |
| CC/C=C\C/C=C\C/C=C\C/C=C\C/C=C\CCCC(=O)NCCNC(=O)[C@@H]1CCCN1C(=O)c1cccnc1 [Compound I-27, (S)—N-(2-((5Z,8Z,11Z,14Z,17Z)-icosa-5,8,11,14,17-pentaenamido)ethyl)-1-nicotinoylpyrrolidine-2-carboxamide] | – | < 25 |
| CC/C=C\C/C=C\C/C=C\C/C=C\C/C=C\CCCC(=O)NC1CCN(C(=O)c2cccnc2)CC1 [Compound I-28, (5Z,8Z,11Z,14Z,17Z)—N-(1-nicotinoylpiperidin-4-yl)icosa-5,8,11,14,17-pentaenamide] | – | < 25 |
| CC/C=C\C/C=C\C/C=C\C/C=C\C/C=C\CCCC(=O)NCC1CCN(C(=O)c2cccnc2)CC1 [Compound I-29, (5Z,8Z,11Z,14Z,17Z)—N-((1-nicotinoylpiperidin-4-yl)methyl)icosa-5,8,11,14,17-pentaenamide] | – | < 25 |
